# Results reported in patent publication US8846761B2, “Method for treating pancreatitis” (Michigan Life Therapeutics, LLC, priority 2010, dated 2014).
# Where two headings read alike, the source gives them in different places.
# Experiments:
# [1] = tested on: patient with triglyceride level of 1030 mg/dl; experiment: Example 5: patient with triglyceride level of 1030 mg/dl treated with gemcabene; type: in vivo, human; conditions: 300 mg once per day plus low fat diet, 12-week follow-up, initial 1030 mg/dl
# Method: A patient, as part of a routine annual examination, has blood tests which reveal that the patient has an LDL-C level of 200 mg/dl and a triglyceride level of 1030 mg/dl. This high triglyceride level places them at high risk for developing pancreatitis. According to the […] guidelines, the patient's treatment is initially targeted to address the high triglyceride level. The patient is administered gemcabene at a dose of 300 mg once per day and is placed on a low fat diet.
# CYP3A4 [2] = target: T1, CYP3A4 (Homo sapiens, UniProt P08684); conditions: simvastatin (a CYP3A4 substrate); cited from earlier work
# T1 sequence (P08684 whole entry): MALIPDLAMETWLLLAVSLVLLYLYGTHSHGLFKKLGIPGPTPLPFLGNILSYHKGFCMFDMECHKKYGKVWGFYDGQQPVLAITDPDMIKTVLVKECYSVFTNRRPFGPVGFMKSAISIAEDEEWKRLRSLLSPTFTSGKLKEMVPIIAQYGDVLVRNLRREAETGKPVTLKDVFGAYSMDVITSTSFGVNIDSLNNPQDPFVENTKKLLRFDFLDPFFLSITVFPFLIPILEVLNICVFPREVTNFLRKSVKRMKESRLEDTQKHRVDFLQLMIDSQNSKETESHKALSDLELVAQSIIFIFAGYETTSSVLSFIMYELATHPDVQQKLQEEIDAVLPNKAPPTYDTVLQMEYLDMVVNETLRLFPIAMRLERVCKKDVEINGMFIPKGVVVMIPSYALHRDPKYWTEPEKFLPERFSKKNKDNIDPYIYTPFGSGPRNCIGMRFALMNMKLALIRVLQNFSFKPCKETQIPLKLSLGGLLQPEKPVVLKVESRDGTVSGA
# CYP3A4 [3] = target: T1, CYP3A4; conditions: cited from earlier work
# [4] = tested on: patients having TG levels >500 mg/dL; experiment: Randomized, double-blind, placebo-controlled study of gemcabene, subset of patients entering with TG >500 mg/dL; type: in vivo, human; conditions: for ApoA-I average % increase / ApoB average % decrease / ApoC-III average % decrease / HDL-C average % increase / VLDL-C average % decrease / hs-CRP average % decrease / Triglycerides average % decrease: patients TG >500 mg/dL; for Triglycerides average % decrease: once daily for 12 weeks, serum, change from baseline
# Method: A randomized, double-blind, placebo-controlled study was conducted to evaluate the efficacy and tolerability of gemcabene in patients with HDL cholesterol levels <35 mg/dL. Patients were stratified based on whether mean serum triglyceride (TG) levels were <200 mg/dL or ≧200 mg/dL. Within each TG stratum, patients were randomized to receive either 150, 300, 600 or 900 mg of gemcabene, or placebo, once daily for 12 weeks.
# Patients were evaluated for percent change from baseline levels of serum HDL cholesterol, serum LDL cholesterol, TG, apolipoproteins A-I, A-II, B, C-III, and E, hs CRP and non-HDL cholesterol levels. Blood samples were measured at screening, randomization and at −8, −4, −2 weeks, baseline, and 2, 4, and 12 weeks after the start of study medication. In addition, HDL-C, LDL-C and TG levels were measured at 2 and 4 weeks before starting study medication. Bays H. E. et al. Am J Cardiol (2003) vol.
# When the data were examined for the subset of patients entering the study having TG levels greater than 500 mg/dL, an unexpectedly large decrease in TG levels for those patients treated with gemcabene was seen as compared with the broader group of patients having triglyceride levels ≧200 mg/dL. Twenty-seven patients having TG levels >500 mg/dL were evaluated in the study.
# FIGS. 2a-e, 3a-e, 4a-e, 5a-e, 6a-e, 7a-e and 8a-e are graphs illustrating the serum levels of TG, HDL-C, ApoA-I, ApoC-III, VLDL-C, hs CRP, and ApoB for individual patients at baseline and at 12 weeks post treatment with doses of 150, 300, 600, and 900 mg/day of gemcabene, or placebo.
# Tables 1-7 provide the data expressed as average percent and mean percent decrease or increase, as appropriate, for each of these parameters at each of the doses tested.
# [5] = tested on: patients having triglyceride levels ≧200 mg/dL; conditions: data reported in Bays et al., cited from earlier work
structure (smiles),measurement,setting,value
"CC(C)(CCCCOCCCCC(C)(C)C(=O)O)C(=O)O [Gemcabene, 6,6′-oxybis-(2,2′-dimethylhexanoic acid)]",triglyceride level at follow-up,[1],363 mg/dL
same,effect in drug-drug interaction study with simvastatin,CYP3A4 [2],no clinically relevant effect
same,inhibition of CYP3A4,CYP3A4 [3],low level of inhibition
same,ApoA-I average % increase,"[4]; 150 mg/day, 12 weeks",9.27%
same,ApoB average % decrease,"[4]; 150 mg/day, 12 weeks",−16.15%
same,ApoC-III average % decrease,"[4]; 150 mg/day, 12 weeks",36.95%
same,HDL-C average % increase,"[4]; 150 mg/day, 12 weeks",32.59%
same,VLDL-C average % decrease,"[4]; 150 mg/day, 12 weeks",48.50%
same,hs-CRP average % decrease,"[4]; 150 mg/day, 12 weeks",−4.02%
same,Triglycerides average % decrease,[4]; 150 mg/day,52.09%
same,Triglycerides average % decrease,"[4]; 150 mg/day, listed as gemcabene",52%
same,ApoA-I average % increase,"[4]; 300 mg/day, 12 weeks",−6.17%
same,ApoB average % decrease,"[4]; 300 mg/day, 12 weeks",1.25%
same,ApoC-III average % decrease,"[4]; 300 mg/day, 12 weeks",49.41%
same,HDL-C average % increase,"[4]; 300 mg/day, 12 weeks",11.69%
same,VLDL-C average % decrease,"[4]; 300 mg/day, 12 weeks",51.86%
same,hs-CRP average % decrease,"[4]; 300 mg/day, 12 weeks",−429.19%
same,Triglycerides average % decrease,[4]; 300 mg/day,61.18%
same,Triglycerides average % decrease,"[4]; 300 mg/day, listed as gemcabene",61%
same,ApoA-I average % increase,"[4]; 600 mg/day, 12 weeks",−3.31%
same,ApoB average % decrease,"[4]; 600 mg/day, 12 weeks",−3.70%
same,ApoC-III average % decrease,"[4]; 600 mg/day, 12 weeks",30.89%
same,HDL-C average % increase,"[4]; 600 mg/day, 12 weeks",−4.02%
same,VLDL-C average % decrease,"[4]; 600 mg/day, 12 weeks",28.73%
same,hs-CRP average % decrease,"[4]; 600 mg/day, 12 weeks",33.50%
same,Triglycerides average % decrease,[4]; 600 mg/day,36.44%
same,ApoA-I average % increase,"[4]; 900 mg/day, 12 weeks",0.47%
same,ApoB average % decrease,"[4]; 900 mg/day, 12 weeks",2.26%
same,ApoC-III average % decrease,"[4]; 900 mg/day, 12 weeks",20.36%
same,HDL-C average % increase,"[4]; 900 mg/day, 12 weeks",1.03%
same,VLDL-C average % decrease,"[4]; 900 mg/day, 12 weeks",17.10%
same,hs-CRP average % decrease,"[4]; 900 mg/day, 12 weeks",66.64%
same,Triglycerides average % decrease,[4]; 900 mg/day,0.90%
same,increase in HDL-C levels,"[4]; one patient (FIG. 1), 150 mg/day, 12 weeks",27%
same,serum triglyceride level after treatment,"[4]; one patient (FIG. 1), 150 mg/day, 12 weeks post-treatment, TG 550 mg/dL at initiation",210 mg/dL
same,fall in triglyceride level,"[4]; one patient (FIG. 1), 150 mg/day, 12 weeks, TG 550 mg/dL at initiation",62%
same,reduction in triglyceride levels,[5]; 150 mg dose,26.6%
same,reduction in triglyceride levels,[5]; 300 mg dose,38.9%
